Measured values published in patent US20220117895A1, “PREPARING LIPOSOMES WITH HIGH DRUG LOADING CAPACITY AND THE USE THEREOF” (Purdue Research Foundation, priority 2019, published 2022).

Columns and labels:
[1] = pKa and ionization of drug; type: physicochemical; details: internal pH 3.6
[2] = cited from earlier work
Huh7 cells [3] = test: Cellular uptake of drug-loaded liposomes, quantitative analysis; type: cell-based, human; details: Huh7, 50 μM Dox equivalent; evident at 3, 6 and 12 h
Protocol: Huh7 Cells were seeded in a 12 well plate at a density of 10^5 cells per well. After overnight incubation, the cells were treated with LRHG, LRSG, or free Gem at a concentration equivalent to 50 μM Gem, or with LRD or free Dox at a concentration equivalent to 50 μM Dox. At 3, 6, 12, and 24 h post-treatment, the cells were rinsed twice with cold PBS, trypsinized and collected by centrifugation at 233 rcf. The cell pellets were suspended in PBS and lysed by three cycles of freezing and thawing followed by probe sonication. The protein content in each cell lysate was measured by micro BCA assay. A hundred microliters of cell lysate was mixed with 200 μL of acetonitrile, bath sonicated for 1 h, and centrifuged at 16100 rcf for 30 min to separate a supernatant. The supernatant was evaporated under vacuum overnight and reconstituted in 100 μL of PBS. Dox was detected by the microplate reader at λEx/λEm of 488 nm/580 nm. dFdCTP was detected by HPLC using a 64:36 v/v mixture of two aqueous mobile phases: (i) KH2PO4 10 mM, tetra butyl ammonium bromide (TBABr) 10 mM, pH 7 and 0.25% methanol and (ii) KH2PO4 250 mM, TBABr 10 mM, pH 7 and 15% methanol, run at 1.2 mL/min, and a detection wavelength of 271 nm.

[4] = test system: Huh7 human hepatocellular carcinoma cells; test: Cytotoxicity of drug-loaded liposomes (MTT); type: cell-based
Protocol: Huh7 human hepatocellular carcinoma cells (donation of Prof. Wanqing Liu) were cultured in RPMI-1640 medium complemented with 10% FBS, 100 U/mL penicillin, and […] streptomycin at 37° C. in a humidified 5% CO2 atmosphere. Huh7 cells were seeded in a 96 well plate at a density of 10,000 cells per well and grown to 70% confluence. Huh7 cells were exposed to free drug or liposomal preparations for 3 or 6 h. The cells were rinsed twice with fresh medium and kept in drug-free medium for 72 h. In another experiment, Huh7 cells were incubated with a free Gem, LRSG, LRHG, free Dox, LRD, blank liposomes, free drug mixture, or liposome mixture for 72 h. The medium was then removed, and 15 μL of 5 mg/mL MTT solution and 100 μL media were added to each well and incubated for 4 h at 37° C. Each well was then treated with 100 μL of stop/solubilization solution and agitated at 37° C. overnight. The absorbance of dissolved formazan was measured at 562 nm by a SpectraMax M3 microplate reader (Molecular Devices, Sunnyvale, Calif.).

Huh7 cells [5] = test: Confocal imaging of cellular uptake; type: cell-based, human; details: 10 min, 3 h, 10 h, with or without chloroquine
Protocol: Huh7 were seeded in a 35 mm glass-bottomed dish (Mat Tek Corp., Ashland, Mass.) at a density of 100,000 cells per dish. At 70% confluence, the cells were treated with free Dox for 10 min or fluorescently labeled liposomes (*LRD, labeled with 25-NBD cholesterol) for 10 min, 3 h or 10 h. At each time point, the cells were rinsed twice with PBS. After nuclei staining with Hoechst 33342 ([…]) for 10 min, the cells were rinsed again with PBS and imaged in medium by a Nikon-A1R confocal microscope (Nikon America Inc., Melville, N.Y.). For selected treatments, chloroquine was added 12 h prior to the treatment. The cells were rinsed with PBS and incubated with the labeled liposomes for confocal imaging.

[6] = literature (Bornmann et al.); cited from earlier work
[7] = upon systemic administration; cited from earlier work

SMILES: COc1cccc2c1C(=O)c1c(O)c3c(c(O)c1C2=O)C[C@@](O)(C(=O)CO)C[C@@H]3O[C@H]1C[C@H](N)[C@H](O)[C@H](C)O1.Cl [Dox, Doxorubicin HCl]
- ionized/unionized ratio in the interior of liposomes [1]: 120,000
- pKa [2]: 8.68
- cellular uptake of Dox (Huh7 cells [3]): entering cells more efficiently than LRD
- IC50 ([4]; 72 h incubation): 0.25 µM
- cellular uptake and localisation by confocal microscope imaging (Huh7 cells [5]): appearing in the nuclei as early as in 10 min

SMILES: Nc1ccn([C@@H]2O[C@H](CO)[C@@H](O)C2(F)F)c(=O)n1 [Gem, Gemcitabine]
- reported maximum tolerated dose [6]: 16 mg/kg
- pKa [2]: 3.6
- half-life [7]: 8 to 17 min
- IC50 ([4]; Homo sapiens, Huh-7, 72 h incubation): 1.6 µM
